Laboratory results from US4511390A, “Aralkylcarbamoyl peptide alcohols” (E. I. Du Pont de Nemours and Company, priority 1983, dated 1985).

How the values were obtained:
NO3 Reductase = test: Nitrate reductase activity in extracts of treated corn root sections; format: cell-based, Corn (Pioneer Hybrid 3320); settings: 50 ppm test compound
Method: (§1) Corn (Pioneer Hybrid 3320), wheat (Arther), sorghum (SC-599-6), barley (CM-721), rice (m101), and cotton (Tamcot SP-37) seeds were disinfected with a 1% sodium hypochlorite solution and placed in 20.3 cm×30.5 cm×5.1 cm Pyrex glass utility trays which were lined with 4 layers of bleached paper towels and irrigated with 150 mL of 0.2 mM CaCl2 solution. The trays were covered with plastic food wrap, perforated to permit air exchange, and placed in a dark growth room which was maintained at 30° and 90% relative humidity. About 48 hours later, another 150 mL of 0.2 mM CaCl2 solution was added to each tray to maintain water sauration of the paper towels.
(§2) Two centimeter root sections were cut 0.5 to 2.5 cm from the tip of 3-day-old etiolated seedling roots. Batches of 20 (for corn and cotton), or 40 (for wheat, barley and rice) root sections were tied in cheesecloth bags, leaving a 20-30 cm length of string to facilitate movement between test solutions. Root tissue was washed at 30±1° by immersing the cheesecloth bags in a well-aerated 0.2 mM K2 HPO4 /KH2 PO4 solution, pH 6.0, for 4 hours. During the last 30 minutes of this washing period, 1 mM potassium nitrate solution was introduced to induce nitrate reductase activity. For uniformity, 100 mL washing solution was used for every bag of root sections (about 300 mg fresh tissue).
Nitrate ion uptake into corn roots was also determined by homogenizing root segments previously exposed to the nitrate absorption solution (without added ^36 ClO3⊖) with a precooled glass homogenizer in 5 mL of cold extraction medium. This medium contained 23 mM phosphate buffer pH 8.8, 5 mM cysteine, 2.5 mM EDTA, and 0.1% Neutronyx 600 (Onyx Chemical Co., Jersey City, N.J.). The resulting homogenate was centrifuged at 30,000 xg for 15 minutes, and an aliquot of the resulting supernatant solution reserved for nitrate ion determination, using an Orion nitrate ion specific electrode. […]
Nitrate reductase activity was determined using a modification of the procedure of Hageman and Huckles- by, Methods Enzymol. […]

corn root sections [1] = test: Ammonium ion uptake by corn root sections (ammonium ion-specific electrode); format: cell-based, Corn (Pioneer Hybrid 3320); settings: 50 ppm test compound
Method: as §1
Two centimeter root sections were cut 0.5 to 2.5 cm from the tip of 3-day-old etiolated seedling roots. Batches of 20 (for corn and cotton), or 40 (for wheat, barley and rice) root sections were tied in cheesecloth bags, leaving a 20-30 cm length of string to facilitate movement between test solutions. Root tissue was washed at 30±1° by immersing the cheesecloth bags in a well-aerated 0.2 mM K2 HPO4 /KH2 PO4 solution, pH 6.0, for 4 hours. […]
Ammonium ion uptake was determined by measuring the disappearance of ammonium ion from an uptake solution containing 1 mmol ammonium chloride, 0.2 mM calcium chloride and 5 mM MES buffer, pH 6.0, with an Orion ammonium ion-specific electrode. […]

corn root sections [2] = test: Nitrate ion uptake by corn root sections measured with radioactive chlorate ion (36ClO3-) as mimic; format: cell-based, Corn (Pioneer Hybrid 3320); settings: Zea mays, 50 ppm test compound, read-out: Ion Uptake (percent increase over control) 36ClO3-
Method: as §1, §2
Nitrate ion uptake was measured using radioactive chlorate ion (^36 ClO3⊖) as a mimic for nitrate ion (Deane-Drummond et al., Plant Physiol. 70:50-54 (1982)). Uptake was measured by incubating 20 or 40 cheesecloth-bound washed root segments for 30 minutes in 100 mL absorption solution. The absorption solution contained 0.5 mM potassium nitrate, 0.2 mM calcium chloride, 5 mM MES buffer, and 5 mg/L sodium molybdate. This solution was adjusted to pH 6 with potassium hydroxide, and labeled with 10,000 cpm/ml of carrier-free radioactive chlorate ion. Absorption temperatures was maintained at 30±1° in a water bath, and moderate aeration was provided. All test compounds were added to the absorption solution. After the absorption period, the cheesecloth bag containing root sections was rinsed with distilled water for 10 seconds and then immersed in 100 mL of ice-cold, aerated 0.2 mM calcium chloride solution for 20 minutes to remove exchangeable components of absorbed ^36 ClO3⊖. Root sections were then removed from the cheesecloth bags, blotted dry, placed in a preweighed scintillation vial, and weighed to determine fresh tissue weight. One mL water and 10 mL Scinti Verse I (Fisher Scientific Co.) scintillation fluid were added, and radioactivity determined by scintillation counting. The rate of nitrate (^36 ClO3⊖) uptake in micromols per gram fresh weight of tissue per hour was calculated.
(§3) Test compounds are identified in Table I by Example number, and by the identity of substituents X, Y, Z and R in the following formula: [drawing 23]

corn root sections [3] = test: Nitrate ion uptake by corn root sections (nitrate ion specific electrode); format: cell-based, Corn (Pioneer Hybrid 3320); settings: 50 ppm test compound; corn root sections
Method: as §1, §2
Nitrate ion uptake into corn roots was also determined by homogenizing root segments previously exposed to the nitrate absorption solution (without added ^36 ClO3⊖) with a precooled glass homogenizer in 5 mL of cold extraction medium. This medium contained 23 mM phosphate buffer pH 8.8, 5 mM cysteine, 2.5 mM EDTA, and 0.1% Neutronyx 600 (Onyx Chemical Co., Jersey City, N.J.). The resulting homogenate was centrifuged at 30,000 xg for 15 minutes, and an aliquot of the resulting supernatant solution reserved for nitrate ion determination, using an Orion nitrate ion specific electrode. The same tissue extract was used for nitrate reductase activity determination (below).
as §3

corn plants = test: Greenhouse test, growth of nitrate-deficient corn plants; format: in vivo; settings: spray containing 50 ppm; 2-week old corn plants deficient in nitrate ion
Method: Greenhouse tests were conducted by germinating corn seeds in a 25.4 cm pot containing a commercial potting soil mixture. After two weeks, seedlings were culled, leaving two plants in each pot. Distilled water was applied to maintain moisture levels and to leach carry-over nutrients from the potting soil mixtures. The remaining corn plants were randomized and divided into several groups for testing. Each test plant received a single 10 ml application of a test compound at 50 ppm, which was applied from a hand-held air-pressurized sprayer while the plant was rotated on a turntable in a spray hood. Each test compound was dissolved in a solution containing 50% (by volume) water and 50% AGWT diluent. AGWT diluent contains acetone, glycerol, water and polyoxyethylene sorbitan monolaurate in a volumetric ratio of 459:20:500:1. 250 mL of a complete, nitrate ion-free, potassium ion-free, and phosphate ion-free Hoagland nutrient solution were added to each pot twice weekly. This nutrient solution was supplemented with distilled water to maintain proper soil moisture. […] Plants were allowed to grow to maturity and yields were measured at the conclusion of each test.

CC(C)C[C@@H](CO)NC(=O)[C@@H]1CCCN1C(=O)OCc1ccccc1 [Example 1, N-Carbobenzoxy-L-prolyl-L-leucinol]
NO3- Reductase (percent increase over control) (NO3 Reductase): -1%
Ion Uptake (percent increase over control) NH4+ (corn root sections [1]): 80%
activation at 50 ppm (corn root sections [2]): 26%
Ion Uptake (percent increase over control) NO3- (corn root sections [3]): 40%
Growth of corn plants (corn plants): stimulated growth
